{"source": "patent US20030017158A1", "about": "“Method for detecting and killing epithelial cancer cells” (priority 2002, published 2003)", "key": {"carcinoma cells": {"system": "carcinoma cells", "assay": "Uptake and retention of mitochondrial marking agents in living carcinoma cells", "format": "cell-based", "settings": "5 minute incubation, rinsed twice with 1% acetic acid, 2-butanol extraction, spectrophotometry", "method": "Different concentrations of the various cationic marking agents, at 100, 50, 10 and 1 μg/ml are prepared in RPMI medium complete with 20% fetal calf serum, 1 mM glutamine, hydrocortisone, insulin, transferrin, estradiol, selenium and growth hormone.\nThe carcinoma cells are incubated at 37EC in tissue culture incubators with 5% CO2 and 95% relative humidity, for 5 minutes with each agent and concentration there and then rinsed twice using 2 minute incubations with 1% acetic acid. After incubation and rinsing, the cells are harvested, at 30 min., 1 hour, 2 hours, 4 hours and 8 hours. The cells are then extracted with 2-butanol and analyzed by spectrophotometry for quantitation of the marking agent."}, "[1]": {"system": "living oral carcinoma cells (SqCHN)", "assay": "Selective toxicity, cell killing of carcinoma cells over 8 days", "format": "cell-based", "settings": "for selective toxicity towards carcinoma cells: carcinoma cells compared to normal oral epithelial cells; for cell death of carcinoma cells: incubated with dye fraction, washed, observed over 8 days", "method": "(§1) The compounds represented by peaks 5, 6, 7 and 8, obtained during the fractionation of the toluidine blue O, are analyzed for their selective toxicity towards living oral carcinoma cells (SqCHN) compared to living normal oral epithelial cells. Separate cultures of squamous carcinoma cells and normal epithelial cells are incubated with the different dye fractions and then washed with dye-free medium. The cells are then re-incubated in growth medium and observed over a period of 8 days to determine the extent of cell killing. The compound of peak 6 results in 95% cell death of carcinoma cells, compared to only about 20% killing of normal cells."}, "[2]": {"system": "other squamous carcinomas, adenocarcinomas, lymphomas and sarcomas", "assay": "Further in-vitro tests with other isolates of carcinoma cells and normal epithelial cells", "format": "cell-based", "settings": "conducted in the manner of Example 8", "method": "(§2) The therapeutic characteristics of the compounds of peaks 6 and 8 are determined by further in-vitro tests, conducted in the manner of Example 8, using other isolates of carcinoma cells and normal epithelial cells. The testing profile includes other squamous carcinomas of the head and neck, esophagus, lung, cervix and skin, as well as other types of cancers, including adenocarcinomas, lymphomas and sarcomas. In-vivo “delay of tumor growth” and “tumor regression assay” tests using tumor-bearing animals, including head and neck and lung carcinomas implanted in Balb-C mice, are made to analyze the in-vivo therapeutic benefit of these compounds."}, "[3]": {"system": "head and neck and lung carcinomas implanted in Balb-C mice", "assay": "In-vivo delay of tumor growth and tumor regression assay", "settings": "tumor-bearing Balb-C mice", "method": "as §2"}, "[4]": {"system": "living normal oral epithelial cells", "assay": "Selective toxicity, cell killing of normal cells over 8 days", "format": "cell-based", "settings": "incubated with dye fraction, washed, observed over 8 days", "method": "as §1"}}}
{"molecule": "Cc1cc2nc3ccc(N(C)C)cc3[s+]c2cc1N.[Cl-]", "note": "[toluidine blue O]", "values": [{"measurement": "saturation concentration", "setting": "carcinoma cells", "result": "≥ 10", "unit": "µg/mL"}]}
{"molecule": "CNc1ccc2nc3cc(C)c(N)cc3[s+]c2c1", "note": "[peak 6]", "values": [{"measurement": "selective toxicity towards carcinoma cells", "setting": "[1]", "result": "selectively toxic towards carcinoma cells"}, {"measurement": "cell death of carcinoma cells", "setting": "[1]", "result": 95, "unit": "%"}, {"measurement": "selective toxicity to the wider variety of cancer cell types, in vitro", "setting": "[2]", "result": "confirm the selective toxicity"}, {"measurement": "selective toxicity, in-vivo therapeutic benefit", "setting": "[3]", "result": "confirm the selective toxicity"}, {"measurement": "killing of normal cells", "setting": "[4]", "result": "about 20%"}]}
{"molecule": "Cc1c(N)ccc2nc3ccc(N(C)C)cc3[s+]c12", "note": "[peak 7]", "values": [{"measurement": "selective toxicity towards carcinoma cells", "setting": "[1]", "result": "do not exhibit the same selective toxicity"}]}
{"molecule": "Cc1cc2nc3ccc(N(C)C)cc3[s+]c2cc1N", "note": "[peak 8]", "values": [{"measurement": "selective toxicity towards carcinoma cells", "setting": "[1]", "result": "selectively toxic towards carcinoma cells"}, {"measurement": "cell death of carcinoma cells", "setting": "[1]", "result": 89, "unit": "%"}, {"measurement": "selective toxicity to the wider variety of cancer cell types, in vitro", "setting": "[2]", "result": "confirm the selective toxicity"}, {"measurement": "selective toxicity, in-vivo therapeutic benefit", "setting": "[3]", "result": "confirm the selective toxicity"}, {"measurement": "killing of normal cells", "setting": "[4]", "result": "about 20%"}]}
{"molecule": "CNc1ccc2nc3ccc(N)c(C)c3[s+]c2c1", "note": "[peak 5]", "values": [{"measurement": "selective toxicity towards carcinoma cells", "setting": "[1]", "result": "do not exhibit the same selective toxicity"}]}
